Test results taken from PubChem BioAssay (NCI).
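Step 1: Grow cells in 96-well plates. Step 2: Expose to compound for 48 hours at 5 concentrations. Step 3: Interpolate endpoints linearly; if unreached, use highest concentration. TGI: total growth inhibition.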

What was measured:
Assay in all cases: NCI anticancer screen, dose series, 48 h
HT29 colon = test system: HT29 colon
UACC-257 melanoma = test system: UACC-257 melanoma
A549 NSCLC = test system: A549 NSCLC
SF-268 CNS = test system: SF-268 CNS
SK-MEL-28 melanoma = test system: SK-MEL-28 melanoma
U251 CNS = test system: U251 CNS
MOLT-4 leukemia = test system: MOLT-4 leukemia
HCT-116 colon = test system: HCT-116 colon
HOP-92 NSCLC = test system: HOP-92 NSCLC
OVCAR-3 ovarian = test system: OVCAR-3 ovarian
SF-295 CNS = test system: SF-295 CNS
NCI-H23 lung = test system: NCI-H23 lung
SW-620 colon = test system: SW-620 colon
NCI-H522 lung = test system: NCI-H522 lung
DMS 273 small cell lung = test system: DMS 273 small cell lung
SK-OV-3 ovarian = test system: SK-OV-3 ovarian
MALME-3M melanoma = test system: MALME-3M melanoma
HCC-2998 colon = test system: HCC-2998 colon
RXF 393 renal = test system: RXF 393 renal
OVCAR-4 ovarian = test system: OVCAR-4 ovarian

Row | Compound | TGI (HT29 colon) [µM] | TGI (UACC-257 melanoma) [µM] | TGI (A549 NSCLC) [µM] | TGI (SF-268 CNS) [µM] | TGI (SK-MEL-28 melanoma) [µM] | TGI (U251 CNS) [µM] | TGI (MOLT-4 leukemia) [µM] | TGI (HCT-116 colon) [µM] | TGI (HOP-92 NSCLC) [µM] | TGI (OVCAR-3 ovarian) [µM] | TGI (SF-295 CNS) [µM] | TGI (NCI-H23 lung) [µM] | TGI (SW-620 colon) [µM] | TGI (NCI-H522 lung) [µM] | TGI (DMS 273 small cell lung) [µM] | TGI (SK-OV-3 ovarian) [µM] | TGI (MALME-3M melanoma) [µM] | TGI (HCC-2998 colon) [µM] | TGI (RXF 393 renal) [µM] | TGI (OVCAR-4 ovarian) [µM]
1 | NC(CSCSCC(N)C(=O)O)C(=O)O (configuration not stated) | > 225 | > 225 | > 225 | > 225 | > 225 | > 225 | > 225 | > 225 | > 225 | > 225 | > 225 | > 225 | > 225 | > 225 | > 225 | > 225 | > 225 | > 225 | > 225 | > 225
2 | CC(C)(C)CI | > 10 | 51.6 | 73.1 | > 100 | > 100 | 66.4 | 76.9 | 39.7 | 61.4 | 35.4 | 33.9 | > 100 | 36.1 | 45.2 | 34.8 | > 100 | 46.6 | 37.2 | 33.7 | 
3 | COc1ccc(-c2c3c(nc4nc(SCC(=O)c5ccc(Br)cc5)nc(N)c24)CCCC3)cc1OC | > 100 | > 100 | > 100 | > 100 | > 100 | > 100 |  | > 100 |  | > 100 | > 100 | > 100 | > 100 |  |  | > 100 | > 100 |  | 59.2 | > 100
4 | O=C1CCC2COc3ccc(O)c1c32 (configuration not stated) | > 100 | > 100 | > 100 |  | > 100 | > 100 | > 100 | > 100 | > 100 | > 100 | > 100 | > 100 | > 100 |  | > 100 | > 100 |  |  | > 100 | > 100
5 | O=C1OC(c2ccccc2Br)=N/C1=C/c1ccccc1 | > 100 | > 100 | > 100 | > 100 | > 100 | 69.7 | > 100 | > 100 |  | 35.4 | > 100 | > 100 | > 100 | 72.2 |  | > 100 | 45.5 | 39.4 |  | > 100
6 | COc1nc(NC2OC(CO)C(O)C(O)C2O)c(N)c(=O)[nH]1 (configuration not stated) | > 100 | > 100 | > 100 | > 100 | > 100 | > 100 | > 100 | > 100 | > 100 | > 100 | > 100 | > 100 | > 100 | > 100 | > 100 | > 100 | > 100 | > 100 | > 100 | > 100
7 | O=c1oc2ccccc2n1P(=O)(Oc1ccc(Cl)cc1)n1c(=O)oc2ccccc21 | > 100 | > 100 | > 100 | > 100 | > 100 | > 100 | > 100 | > 100 | > 100 | > 100 | > 100 | > 100 | > 100 | > 100 | > 100 | > 100 | > 100 | > 100 | > 100 | > 100
8 | CC1OC(CO)(n2cnc3c(N)ncnc32)C(O)C1O (configuration not stated) | > 100 | > 100 | > 100 | > 100 | > 100 | > 100 | > 100 | > 100 | > 100 | > 100 | > 100 | > 100 | > 100 | > 100 | > 100 | > 100 | > 100 | > 100 | > 100 | > 100
